Assay results reported in patent US7875289B2, “Compositions of less immunogenic and long-circulating protein-lipid complexes” (The Research Foundation of State University of New York, priority 2006, dated 2011).

Target: T1, BDDrFVIII (Homo sapiens, UniProt P00451)
T1 construct: Deletion of the B domain leads to a less heterogenic, genetically engineered rFVIII that corresponds to the shortest form of pdFVIII (e.g. ˜170 KDa)
T1 sequence (P00451 with tags, fused parts or gaps DEL765-1658): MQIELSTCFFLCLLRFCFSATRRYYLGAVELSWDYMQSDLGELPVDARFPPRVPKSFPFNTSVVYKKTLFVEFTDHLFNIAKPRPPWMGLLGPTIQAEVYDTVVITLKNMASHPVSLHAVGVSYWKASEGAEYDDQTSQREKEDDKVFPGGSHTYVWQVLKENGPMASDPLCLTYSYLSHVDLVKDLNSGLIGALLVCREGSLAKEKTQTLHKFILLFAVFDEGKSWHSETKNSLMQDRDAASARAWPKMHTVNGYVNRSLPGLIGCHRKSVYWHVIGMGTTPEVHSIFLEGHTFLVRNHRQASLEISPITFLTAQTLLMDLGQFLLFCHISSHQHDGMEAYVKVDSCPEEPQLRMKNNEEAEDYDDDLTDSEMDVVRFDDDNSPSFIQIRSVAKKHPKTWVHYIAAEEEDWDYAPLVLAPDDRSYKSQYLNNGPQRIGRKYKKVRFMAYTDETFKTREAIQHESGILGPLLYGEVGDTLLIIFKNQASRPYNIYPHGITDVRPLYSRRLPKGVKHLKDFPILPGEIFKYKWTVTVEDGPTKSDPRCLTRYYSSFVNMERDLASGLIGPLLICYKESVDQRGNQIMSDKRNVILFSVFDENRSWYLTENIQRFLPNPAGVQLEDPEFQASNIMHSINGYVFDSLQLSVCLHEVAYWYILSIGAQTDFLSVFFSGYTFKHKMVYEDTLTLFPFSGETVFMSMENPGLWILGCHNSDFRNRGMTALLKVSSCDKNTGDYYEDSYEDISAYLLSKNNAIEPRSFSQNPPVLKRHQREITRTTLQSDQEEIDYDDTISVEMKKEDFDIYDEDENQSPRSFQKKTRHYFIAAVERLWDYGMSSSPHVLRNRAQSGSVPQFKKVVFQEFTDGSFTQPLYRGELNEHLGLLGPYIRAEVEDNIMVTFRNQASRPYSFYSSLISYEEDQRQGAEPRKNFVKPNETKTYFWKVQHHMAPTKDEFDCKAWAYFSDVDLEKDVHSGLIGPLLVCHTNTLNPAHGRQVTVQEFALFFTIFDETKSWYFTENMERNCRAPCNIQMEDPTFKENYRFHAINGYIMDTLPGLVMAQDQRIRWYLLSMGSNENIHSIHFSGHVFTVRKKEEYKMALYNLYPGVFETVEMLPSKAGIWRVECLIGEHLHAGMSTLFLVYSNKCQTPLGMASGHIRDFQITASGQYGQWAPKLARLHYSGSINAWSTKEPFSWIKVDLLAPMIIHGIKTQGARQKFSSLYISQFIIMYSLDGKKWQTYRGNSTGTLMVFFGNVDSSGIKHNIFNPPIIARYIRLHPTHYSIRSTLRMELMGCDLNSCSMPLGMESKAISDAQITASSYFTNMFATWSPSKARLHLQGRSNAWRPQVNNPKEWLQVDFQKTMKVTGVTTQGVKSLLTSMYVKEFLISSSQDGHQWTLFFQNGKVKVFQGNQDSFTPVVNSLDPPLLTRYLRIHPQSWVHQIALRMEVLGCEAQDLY
Test: Dissociation constant of lipid head group - BDDrFVIII interaction by intrinsic fluorescence
Assay type: binding
Conditions: excitation 285 nm, emission 330 nm, protein 3 ug/mL
Experimental: This examples describes the preparation of PS containing liposomes that were used for comparison with the PI containing lipidic structures in other Examples. BDDrFVIII was mixed with solution containing different concentration of O-phospho-L-serine (OPLS) or phosphocholine in such a way that the final protein concentration is maintained constant at 3 ug/mL. The OPLS or phosphocholine concentration vared between 0 and 100 uM. Each mixture is incubated for 5 minutes before subjecting to further analysis.
The intrinsic fluorescent of BDDrFVIII in the presence of increasing concentration of phospholipids head group was measured with a Quanta Master PTI instrument. The excitation was set to 285 nm and the emission was recorded at peak maximum (e.g. 330 nm). The normalized fluorescence (F/F0) data was plotted vs. [lipid] and used for the determination of the dissociation constant for lipid head group—BDDrFVIII interaction.

Kd	SMILES
70.2 µM	N[C@@H](COP(=O)(O)O)C(=O)O [OPLS, O-phospho-L-serine]
24.2 µM	C[N+](C)(C)CCOP(=O)([O-])O [phophocholine, phosphocholine]
